Results as given in patent US20240418703A1, “CULTURE MEDIUM FOR PRIMARY OVARIAN CANCER CELLS, CULTURE METHOD AND APPLICATION THEREOF” (PRECEDO PHARMACEUTICALS CO., LTD, priority 2021, published 2024).
Read-outs that look alike come from different tables or passages of the source.

B1: fibroblast growth factors 7 (protein, UniProt P21781 32-194, looked up)
Fibroblast growth factor 7: CNDMTPEQMATNVNCSSPERHTRSYDYMEGGDIRVRRLFCRTQWYLRIDKRGKVKGTQEMKNNYNIMEIRTVAVGIVAIKGVESEFYLAMNKEGKLYAKKECNEDCNFKELILENHYNTYASAKWTHNGGEMFVALNQKGIPVRGKKTKKEQKTAHFLPMAIT
notes: medium additive, supplier R&D
B2: noggin (protein, UniProt Q13253 28-232, looked up)
Noggin: QHYLHIRPAPSDNLPLVDLIEHPDPIFDPKEKDLNETLLRSLLGGHYDPGFMATSPPEDRPGGGGGAAGGAEDLAELDQLLRQRPSGAMPSEIKGLEFSEGLAQGKKQRLSKKLRRKLQMWLWSQTFCPVLYAWNDLGSRFWPRYVKVGSCFSKRSCSVPEGMVCKPSKSVHLTVLRWRCQRRGGQRCGWIPIQYPIISECKCSC
notes: medium additive, supplier R&D
B3: human fibroblast growth factor −10 (protein, UniProt O15520 38-208, looked up)
Fibroblast growth factor 10: QALGQDMVSPEATNSSSSSFSSPSSAGRHVRSYNHLQGDVRWRKLFSFTKYFLKIEKNGKVSGTKKENCPYSILEITSVEIGVVAVKAINSNYYLAMNKKGKLYGSKEFNNDCKLKERIEENGYNTYASFNWQHNGRQMYVALNGKGAPRRGQKTRRKNTSAHFLPMVVHS
notes: medium additive, supplier sino biological
B4: R-spondin1 (protein, UniProt Q2MKA7 21-263, looked up)
R-spondin-1: SRGIKGKRQRRISAEGSQACAKGCELCSEVNGCLKCSPKLFILLERNDIRQVGVCLPSCPPGYFDARNPDMNKCIKCKIEHCEACFSHNFCTKCKEGLYLHKGRCYPACPEGSSAANGTMECSSPAQCEMSEWSPWGPCSKKQQLCGFRRGSEERTRRVLHAPVGDHAACSDTKETRRCTVRRVPCPEGQKRRKGGQGRRENANRNLARKESKEAGAGSRRRKGQQQQQQQGTVGPLTSAGPA
notes: medium additive, supplier R&D
B5: amphiregulin (protein, UniProt P15514 101-187, looked up)
Amphiregulin: SVRVEQVVKPPQNKTESENTSDKPKRKKKGGKNGKNRRNRKKKNPCNAEFQNFCIHGECKYIEHLEAVTCKCQQEYFGERCGEKSMK
modifications: Amphiregulin
notes: medium additive, supplier MCE

Key:
[1] = system: primary ovarian cancer cells; assay: Effect of single additives in Basal Medium on proliferation of primary ovarian cancer cells (cell counting); assay type: cell-based, human; parameters: key: +: compared with the Basal Medium, the culture medium added with the additive(s) has the effect of promoting the proliferation of two cases of primary ovarian cancer cells isolated from ovarian cancer tissue; −: the culture medium added with the additive(s) has the effect of promoting the proliferation of one case of primary ovarian cancer cells isolated from ovarian cancer tissue; the culture medium added with the additive(s) has no significant effect on the proliferation of at least two cases of primary ovarian cancer cells isolated from ovarian cancer tissue
Description: First, a Basal Medium containing initial medium was prepared. The initial medium may be selected from the group consisting of DMEM/F12, DMEM, F12, or RPMI-1640 commonly used in the art. In this example, the formulation of the Basal Medium is: DMEM/F12 medium (purchased from Corning)+100 μg/mL Primocin (purchased from InvivoGen, 0.2% (v/v), commercial product has a concentration of 50 mg/mL). Different types of additives (see Table 1) were added to the Basal Medium to prepare culture mediums for primary ovarian cancer cells with different components.
Tissue samples (intraoperative) of ovarian cancer solid tumor were obtained from patients by professional medical practitioner of professional medical institutions, and all patients have signed the informed consent. Intraoperative samples having the size of 0.25 cm^3, endoscopic samples having the size of 0.025 cm^3 were stored and transported using commercial tissue preservation solution (manufacturer: Miltenyi Biotec).
Tissue digestion solution: 1640 medium (Corning, 10-040-CVR), collagenase II (2 mg/mL), collagenase IV (2 mg/mL), DNase (50 U/mL), hyaluronidase (0.75 mg/mL), calcium chloride (3.3 mM), BSA (10 mg/mL).
• 3.1. Tissue samples were transferred from the ultra-clean workbench to a culture dish, and the tissue with blood was removed. The tissue samples were rinsed twice with Basal Medium, and then were transferred to another culture dish and mechanically cut with a sterile scalpel into tissue blocks of 1×1×1 mm^3 in size. • 3.2. The cut intraoperative tissues were aspirated into a 15 mL centrifuge tube, to which 5 mL of Basal Medium was added, fully mixed, and then centrifuged at 1500 rpm for 4 minutes. • 3.3. The supernatant was discarded, and the resultant was added with 1:3 mixture of Basal Medium and tissue digestion solution (the amount of tissue digestion solution added was about 10 mL tissue digestion solution for 1 g of tumor tissue). The samples were marked with names and numbers, sealed with sealing film, and then digested in a shaker (Zhichu Instrument ZQLY-180N) at 37° C., 300 rpm. The completion of digestion was determined via observation every 30 minutes, based on the existing of visible particles or not. The digestion time was 4 hours. • 3.4. After the digestion was completed, undigested tissue mass was filtered out through a […] filter mash. The tissue mass on the filter mash was rinsed into the centrifuge tube with Basal Medium to reduce cell loss. The resultant was centrifuged at 25° C., 1500 rpm for 4 minutes. • 3.5. […] If there were blood cells, 8 mL blood cell lysate (purchased from Sigma) was added in the resultant and fully mixed, lysed at 4° C. for 20 minutes, with inverting and mixing once during the process. The resultant was centrifuged at 25° C., 1500 rpm for 4 minutes. • 3.6. The supernatant was discarded and 2 mL Basal Medium was added to resuspend the cells for reserve.
• 4.1. Microscopic observation: a small amount of resuspended cells were plated in a culture dish, and the density and morphology of cancer cells were observed under a microscope (CNOPTEC, BDS400); • 4.2. Viable cell counting: 12 μL of the resuspended cell suspension was fully mixed with 12 μL of trypan blue staining solution (Sangon Biotech (Shanghai) Co., Ltd.), and then 20 μL of the mixture was added into a cell counting plate (Countstar, specifications: 50 pieces/box).
The primary ovarian cancer cells isolated from 2 cases of ovarian cancer tissues (numbered L40 and LQQ) according to the above step (2) were resuspended in the culture medium in Table 1, respectively and the cell number was counted. The Basal Medium was mixed with matrigel (Corning®, 356231) in a 50:1 ratio on ice. 300 μL of the mixture was plated and incubated in a 5% CO2 incubator at 37° C. for 25-35 minutes, preferably 30 minutes. The supernatant was discarded. […]

[2] = system: primary ovarian cancer cells; assay: Effect of different concentrations of added factors on proliferation of primary ovarian cancer cells (ratio to Blank Control); assay type: cell-based, human
[3] = additive in Basal Medium at the final concentration, samples L40 and LQQ, 7-10 days of culture, versus Basal Medium
[4] = factor added to the medium lacking it, FIGS. 2A-2L
[5] = samples A26083, L56, L62, FIGS. 2A-2L

Molecule | Level of promoting proliferation [1, 3] | proliferation-promoting effect on primary ovarian cancer cells [2, 5] | further results
Cc1c[nH]c(-c2cnc(NCCNc3ccc(C#N)cn3)nc2-c2ccc(Cl)cc2Cl)n1 [CHIR99021, reference compound] | ○ |  | 
CN1C(=O)C(c2c(F)cccc2F)N(C)c2nc(Nc3ccc(S(N)(=O)=O)cc3)ncc21 (centres unmarked) [Compound 1, 4-((7-(2,6-Difluorophenyl)-5,8-dimethyl-6-oxo-5,6,7,8-tetrahydropteridin-2-yl)amino)benzsulfamide] | + | significant proliferation-promoting effect | concentration at which the cell proliferation effect is most significant [2, 4]: 5 µM
Cc1cccc(-c2nn(C(=S)Nc3ccccc3)cc2-c2ccnc3ccccc23)n1 [Compound A8301, A8301, reference compound] | ○ |  | 
C[C@@H](N)[C@H]1CC[C@H](C(=O)Nc2ccncc2)CC1 [Compound Y-27632, Y-27632, reference compound] | + | significant proliferation-promoting effect | concentration at which the cell proliferation effect is most significant [2, 4]: 5 µM
Oc1ccc(-c2nc(-c3ccncc3)c(-c3ccc(F)cc3)[nH]2)cc1 [SB202190, reference compound] | ○ |  | 
NC(=O)c1ccc(-c2nc(-c3ccc4c(c3)OCO4)c(-c3ccccn3)[nH]2)cc1 [SB431542, reference compound] | ○ |  | 
C[C@]12CCC(=O)C=C1CC[C@@H]1[C@@H]2[C@@H](O)C[C@@]2(C)[C@H]1CC[C@]2(O)C(=O)CO [hydrocortisone, reference compound] | ○ |  | 
NC(=O)c1cccnc1 [nicotinamide, reference compound] | ○ |  | 
CCCCC[C@H](O)/C=C/[C@H]1[C@H](O)CC(=O)[C@@H]1C/C=C\CCCC(=O)O [prostaglandin E2, reference compound] | − | significant proliferation-promoting effect | concentration at which the cell proliferation effect is most significant [2, 4]: 2.5 µM
CC(=O)C(=O)[O-].[Na+] [sodium pyruvate, reference compound] | ○ |  | 
basic fibroblast growth factor | ○ |  | 
cholera toxin |  |  | concentration at which the cell proliferation effect is most significant [2]: 0.1 µg/mL; more preferable amount according to the results of this example [2]: 0.05 to 0.2 µg/mL; preferable amount according to the results of this example [2]: 50 to 800 ng/mL; proliferation-promoting effect on primary ovarian cancer cells [2]: significant proliferation-promoting effect; Level of promoting proliferation [1]: +
epidermal growth factor | − | significant proliferation-promoting effect | preferable amount according to the results of this example ([2]; preferably, FIGS. 2A-2L): 2.5 to 40 ng/mL
hepatocyte growth factor | ○ |  | 
insulin | + | significant proliferation-promoting effect | concentration at which the cell proliferation effect is most significant [2, 4]: 9 µg/mL; more preferable amount according to the results of this example ([2]; more preferably, FIGS. 2A-2L): 3 to 9 µg/mL
insulin-like growth factor-1 | + | significant proliferation-promoting effect | concentration at which the cell proliferation effect is most significant [2, 4]: 0.05 µg/mL; preferable amount according to the results of this example ([2]; preferably, FIGS. 2A-2L): 25 to 100 ng/mL
neuregulin −1 | ○ |  | 
vitamin E [reference compound] | ○ |  | 
B1 | ○ |  | 
B2 | ○ |  | 
B3 | ○ |  | 
B4 | ○ |  | 
B5 | + | significant proliferation-promoting effect | concentration at which the cell proliferation effect is most significant [2, 4]: 0.003 µg/mL; preferable amount according to the results of this example ([2]; preferably, FIGS. 2A-2L): 1 to 81 ng/mL
